Results: the NIST ThermoML archive (doi:10.1016/j.tca.2011.12.021)

Key:
[1] = 101.3 kPa, Crystal, Hot wire method
[2] = wn = mass fraction of the nth substance listed; details: 101 kPa, Crystal, Hot wire method

CC(C)(CO)CO [2,2-dimethyl-1,3-propanediol]
[1]
Details	thermal conductivity [W/m/K]
323 K	0.4
333 K	0.38
343 K	0.36
353 K	0.33
363 K	0.32
373 K	0.29
383 K	0.3
393 K	0.31

CC(C)(CO)CO [2,2-dimethyl-1,3-propanediol] + CC1(C)[C@@H]2CC[C@@]1(C)C(=O)C2
[2]
Details	thermal conductivity [W/m/K]
298 K, w2 = 0.7	0.35
303 K, w2 = 0.03	0.38
303 K, w2 = 0.3	0.37
303 K, w2 = 0.7	0.34
303 K, w2 = 0.96	0.3
308 K, w2 = 0.3	0.36
308 K, w2 = 0.7	0.34
313 K, w2 = 0.03	0.37
313 K, w2 = 0.3	0.35
313 K, w2 = 0.7	0.33
313 K, w2 = 0.96	0.3
315 K, w2 = 0.7	0.33
317 K, w2 = 0.7	0.33
318 K, w2 = 0.3	0.34
319 K, w2 = 0.7	0.32
321 K, w2 = 0.7	0.32
323 K, w2 = 0	0.4
323 K, w2 = 0.03	0.36
323 K, w2 = 0.3	0.33
323 K, w2 = 0.7	0.32
323 K, w2 = 0.96	0.3
325 K, w2 = 0.7	0.31
328 K, w2 = 0.3	0.32
328 K, w2 = 0.7	0.31
333 K, w2 = 0	0.38
333 K, w2 = 0.03	0.35
333 K, w2 = 0.3	0.31
333 K, w2 = 0.7	0.31
333 K, w2 = 0.96	0.29
338 K, w2 = 0.7	0.31
343 K, w2 = 0	0.36
343 K, w2 = 0.03	0.34
343 K, w2 = 0.7	0.31
343 K, w2 = 0.96	0.29
348 K, w2 = 0.7	0.3
353 K, w2 = 0	0.33
353 K, w2 = 0.03	0.32
353 K, w2 = 0.7	0.3
353 K, w2 = 0.96	0.29
358 K, w2 = 0.7	0.29
363 K, w2 = 0	0.32
363 K, w2 = 0.7	0.28
363 K, w2 = 0.96	0.28
373 K, w2 = 0	0.29
373 K, w2 = 0.96	0.28
383 K, w2 = 0	0.3
383 K, w2 = 0.96	0.28
393 K, w2 = 0	0.31
393 K, w2 = 0.96	0.27
403 K, w2 = 0.96	0.27
413 K, w2 = 0.96	0.26
423 K, w2 = 0.96	0.26
433 K, w2 = 0.96	0.25
